Results from ChEMBL document CHEMBL4229553, “Design, synthesis and in vitro study of densely functionalized oxindoles as potent α-glucosidase inhibitors” (Bioorg Med Chem, 2018).
One block for each compound: values may come before it.

Assays:
[1] = Inhibition of yeast alpha-glucosidase using 4-nitrophenyl-alpha-D-glucopyranoside as substrate incubated for 15 mins by spectrophotometric method; set-up: species or system Saccharomyces cerevisiae
[2] = Inhibition of yeast alpha-glucosidase using nitrophenol-D-glucopyranoside as substrate incubated for 15 mins; set-up: species or system Saccharomyces cerevisiae
Alpha glucosidase = Alpha glucosidase (Homo sapiens, UniProt O43451+P10253+P14410+Q2M2H8); assay: Inhibition of alpha-glucosidase (unknown origin); assay type: protein assay
BHK-21 = assay: Cytotoxicity against BHK21 cells; assay type: cell-based, Mesocricetus auratus; conditions: hamster
yeast alpha-glucosidase = assay: Ratio of IC50 for BHK21 cells to IC50 for yeast alpha-glucosidase; assay type: toxicity; conditions: hamster, read-out: Ratio IC50
Saccharomyces cerevisiae [3] = assay: Competitive inhibition of yeast alpha-glucosidase assessed as apparent Km for substrate at 2 uM using p-nitrophenyl-alpha-D-glucopyranoside as substrate incubated for 30 mins by Lineweaver-Burk plot method
Saccharomyces cerevisiae [4] = assay: Competitive inhibition of yeast alpha-glucosidase assessed as apparent Km for substrate at 4 uM using p-nitrophenyl-alpha-D-glucopyranoside as substrate incubated for 30 mins by Lineweaver-Burk plot method
Saccharomyces cerevisiae [5] = assay: Competitive inhibition of yeast alpha-glucosidase assessed as apparent Km for substrate at 6 uM using p-nitrophenyl-alpha-D-glucopyranoside as substrate incubated for 30 mins by Lineweaver-Burk plot method
Saccharomyces cerevisiae [6] = assay: Competitive inhibition of yeast alpha-glucosidase assessed as apparent Km for substrate at 8 uM using p-nitrophenyl-alpha-D-glucopyranoside as substrate incubated for 30 mins by Lineweaver-Burk plot method
Saccharomyces cerevisiae [7] = assay: Competitive inhibition of yeast alpha-glucosidase assessed as apparent Km for substrate at 10 uM using p-nitrophenyl-alpha-D-glucopyranoside as substrate incubated for 30 mins by Lineweaver-Burk plot method
Saccharomyces cerevisiae [8] = assay: Competitive inhibition of yeast alpha-glucosidase assessed as Vmax for substrate at 2 uM using p-nitrophenyl-alpha-D-glucopyranoside as substrate incubated for 30 mins by Lineweaver-Burk plot method
Saccharomyces cerevisiae [9] = assay: Competitive inhibition of yeast alpha-glucosidase assessed as Vmax for substrate at 4 uM using p-nitrophenyl-alpha-D-glucopyranoside as substrate incubated for 30 mins by Lineweaver-Burk plot method
Saccharomyces cerevisiae [10] = assay: Competitive inhibition of yeast alpha-glucosidase assessed as Vmax for substrate at 6 uM using p-nitrophenyl-alpha-D-glucopyranoside as substrate incubated for 30 mins by Lineweaver-Burk plot method
Saccharomyces cerevisiae [11] = assay: Competitive inhibition of yeast alpha-glucosidase assessed as Vmax for substrate at 8 uM using p-nitrophenyl-alpha-D-glucopyranoside as substrate incubated for 30 mins by Lineweaver-Burk plot method
Saccharomyces cerevisiae [12] = assay: Competitive inhibition of yeast alpha-glucosidase assessed as Vmax for substrate at 10 uM using p-nitrophenyl-alpha-D-glucopyranoside as substrate incubated for 30 mins by Lineweaver-Burk plot method

Structure (SMILES): Cc1cc(C(=O)C2C(=O)N(C)c3ccc(F)cc32)c(C(=O)N2CCCCC2)c(=O)[nH]1 (stereo not given)
IC50 [1]: 10 µM

Structure (SMILES): Cc1cc2c(c(=O)[nH]1)C(=O)O/C2=C1\C(=O)Nc2ccc(Br)cc21
IC50 [1]: 33 µM

Structure (SMILES): Cc1cc2c(c(=O)[nH]1)C(=O)O/C2=C/c1cc(Br)cs1
IC50 [2]: 0.24 µM

Structure (SMILES): Cc1cc(C(=O)C2C(=O)N(C)c3ccccc32)c(C(=O)N2CCCCC2)c(=O)[nH]1 (stereo not given)
IC50 [1]: 10.2 µM

Structure (SMILES): CCC1NC(CC)C(O)C(O)C1O (stereo not given)
IC50 (Alpha glucosidase): 10 µM

Structure (SMILES): Cc1cc2c(c(=O)[nH]1)C(=O)O/C2=C1\C(=O)Nc2ccccc21
IC50 [1]: 47.2 µM

Structure (SMILES): Cc1cc2c(c(=O)[nH]1)C(=O)OC2C1(O)C(=O)N(C)c2ccc(Br)cc21 (stereo not given)
IC50 [1]: 36.1 µM

Structure (SMILES): Cc1cc(C(=O)C2C(=O)Nc3ccc([N+](=O)[O-])cc32)c(C(=O)N2CCCCC2)c(=O)[nH]1 (stereo not given)
IC50 [1]: 4.56 µM

Structure (SMILES): Nc1ccn(C2OC(CO)[C@@H](O)[C@H]2O)c(=O)n1 (stereo not given in full)
IC50 (Alpha glucosidase): 2.5 µM

Structure (SMILES): Cc1cc2c(c(=O)[nH]1)C(=O)OC2C1(O)C(=O)N(C)c2ccccc21 (stereo not given)
IC50 [1]: 27.6 µM

Structure (SMILES): Cc1cc2c(c(=O)[nH]1)C(=O)OC2C1(O)C(=O)N(Cc2ccccc2)c2ccc(Br)cc21 (stereo not given)
IC50 [1]: 42.5 µM

Structure (SMILES): Cc1cc(C(=O)C2C(=O)N(Cc3ccccc3)c3ccc(F)cc32)c(C(=O)N2CCCCC2)c(=O)[nH]1 (stereo not given)
IC50 [1]: 8.21 µM

Structure (SMILES): Cc1cc(/C(O)=C2/C(=O)N(C)c3ccc(Br)cc32)c(C(=O)N2CCCCC2)c(=O)[nH]1
IC50 [1]: 6.41 µM

Further lines, with some results ahead:

IC50 [1]: 2.67 µM
Structure (SMILES): Cc1cc(C(=O)C2C(=O)Nc3ccccc32)c(C(=O)N2CCCCC2)c(=O)[nH]1 (stereo not given)
Activity (BHK-21): Non-Toxic | selectivity ratio (yeast alpha-glucosidase): 100

IC50 [1]: 2.21 µM
Structure (SMILES): Cc1cc(C(=O)C2C(=O)N(Cc3ccccc3)c3ccc(Br)cc32)c(C(=O)N2CCCCC2)c(=O)[nH]1 (stereo not given)
Activity (BHK-21): Non-Toxic | selectivity ratio (yeast alpha-glucosidase): 100

IC50 [1]: 2.03 µM
Structure (SMILES): Cc1cc(/C(O)=C2/C(=O)Nc3ccc(Br)cc32)c(C(=O)N2CCCCC2)c(=O)[nH]1
Activity (BHK-21): Non-Toxic | selectivity ratio (yeast alpha-glucosidase): 100

IC50 [1]: 0.646 µM | Km (Saccharomyces cerevisiae [3]): 1.64 µM | Km (Saccharomyces cerevisiae [4]): 1.79 µM | Km (Saccharomyces cerevisiae [5]): 1.8 µM | Km (Saccharomyces cerevisiae [6]): 2.54 µM | Km (Saccharomyces cerevisiae [7]): 2.92 µM | Vmax (Saccharomyces cerevisiae [8]): 41.6 µM/min | Vmax (Saccharomyces cerevisiae [9]): 40 µM/min | Vmax (Saccharomyces cerevisiae [10]): 40 µM/min | Vmax (Saccharomyces cerevisiae [11]): 41.6 µM/min | Vmax (Saccharomyces cerevisiae [12]): 40 µM/min
Structure (SMILES): Cc1cc(C(=O)C2C(=O)Nc3ccc(F)cc32)c(C(=O)N2CCCCC2)c(=O)[nH]1 (stereo not given)
Activity (BHK-21): Non-Toxic | selectivity ratio (yeast alpha-glucosidase): 100

IC50 [1]: 3.01 µM
Structure (SMILES): Cc1cc(C(=O)C2C(=O)N(Cc3ccccc3)c3ccccc32)c(C(=O)N2CCCCC2)c(=O)[nH]1 (stereo not given)

IC50 [1]: 4.02 µM
Structure (SMILES): C[C@H]1O[C@H](O[C@H]2[C@H](O)[C@@H](O)[C@@H](O[C@H]3[C@H](O)[C@@H](O)C(O)O[C@@H]3CO)O[C@@H]2CO)[C@H](O)[C@@H](O)[C@@H]1N[C@H]1C=C(CO)[C@@H](O)[C@H](O)[C@H]1O (stereo not given in full) [ACARBOSE]

IC50 [1]: 2.61 µM
Structure (SMILES): Cc1cc(C(=O)C2C(=O)Nc3ccccc32)c(C(=O)N2CCCC2)c(=O)[nH]1 (stereo not given)
Activity (BHK-21): Non-Toxic | selectivity ratio (yeast alpha-glucosidase): 100
